Laboratory results as given in patent publication US8791132B2, “Compounds and methods for treatment of hypertension” (Medivation Technologies, Inc., priority 2011, dated 2014).

What was measured:
[1] = biological target: T1, human recombinant adrenergic α2A receptor (Homo sapiens, UniProt P08913); assay: Radioligand binding, adrenergic α2A ([3H]MK-912); details: compound at 0.1 μM; [3H]MK-912; repeat datapoints each shown; 0.1 µM
T1 construct: expressed in transfected cells; host or cells: insect Sf9 cells
T1 sequence (P08913 1-465): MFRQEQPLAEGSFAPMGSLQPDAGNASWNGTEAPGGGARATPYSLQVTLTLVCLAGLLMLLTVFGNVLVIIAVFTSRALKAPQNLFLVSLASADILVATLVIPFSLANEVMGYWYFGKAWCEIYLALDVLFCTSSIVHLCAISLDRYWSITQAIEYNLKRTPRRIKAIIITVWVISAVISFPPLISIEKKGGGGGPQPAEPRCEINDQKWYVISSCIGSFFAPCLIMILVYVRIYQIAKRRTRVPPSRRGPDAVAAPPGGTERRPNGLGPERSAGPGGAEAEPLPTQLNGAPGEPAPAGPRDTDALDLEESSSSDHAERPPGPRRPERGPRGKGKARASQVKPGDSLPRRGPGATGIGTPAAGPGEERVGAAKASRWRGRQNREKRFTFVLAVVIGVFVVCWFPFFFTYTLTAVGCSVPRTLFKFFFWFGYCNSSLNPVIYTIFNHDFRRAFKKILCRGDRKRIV
In short: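 Receptor expressed in insect Sf9 cells, assayed in 50 mM Tris-HCl pH 7.4 with 12.5 mM MgCl2 and 2 mM EDTA. Compounds incubated with 1 nM [3H]MK-912 for 60 min at 25 °C; nonspecific binding defined with 10 μM WB-4101. Filter-bound radioactivity counted; values are percent inhibition of specific binding.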

[2] = biological target: T2, human recombinant adrenergic α2B receptor (Homo sapiens, UniProt P18089); assay: Radioligand binding, adrenergic α2B ([3H]Rauwolscine); details: [3H]Rauwolscine, repeat datapoints each shown; for Percentage inhibition of ligand binding, Adrenergic α2B (0.03 μM): compound at 0.03 μM; for inhibition at 0.03 µM: read-out: Percentage inhibition of ligand binding, Adrenergic α2B (0.03 μM), compound at 0.03 μM
T2 construct: expressed in transfected cells; host or cells: CHO-K1
T2 sequence (P18089 1-450): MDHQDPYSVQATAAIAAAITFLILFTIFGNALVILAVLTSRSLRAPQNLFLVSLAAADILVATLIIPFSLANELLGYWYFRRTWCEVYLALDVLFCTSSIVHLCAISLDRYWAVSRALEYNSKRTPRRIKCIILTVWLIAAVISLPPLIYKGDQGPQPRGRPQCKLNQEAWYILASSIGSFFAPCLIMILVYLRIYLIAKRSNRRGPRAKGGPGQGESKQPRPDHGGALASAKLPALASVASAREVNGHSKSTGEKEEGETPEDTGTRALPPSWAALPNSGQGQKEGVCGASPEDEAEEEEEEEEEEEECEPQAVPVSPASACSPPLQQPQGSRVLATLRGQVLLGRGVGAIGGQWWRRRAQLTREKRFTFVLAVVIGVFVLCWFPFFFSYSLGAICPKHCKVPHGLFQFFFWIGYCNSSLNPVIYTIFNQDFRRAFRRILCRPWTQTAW
In short: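 Membranes from CHO-K1 cells expressing human recombinant α2B, in 50 mM Tris-HCl pH 7.4, 12.5 mM MgCl2, 1 mM EDTA, 0.2% BSA, incubated with compound and 2.5 nM [3H]Rauwolscine, 60 min, 25 °C.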

[3] = biological target: T3, rat adrenergic α1B receptor (Rattus norvegicus, UniProt P15823); assay: Radioligand binding, adrenergic α1B ([3H]Prazosin); details: [3H]Prazosin, repeat datapoints each shown; for Percentage inhibition of ligand binding, Adrenergic α1B (0.1 μM): compound at 0.1 μM
T3 construct: rat adrenergic α1B receptor obtained from Wistar Rat liver; from tissue; host or cells: Wistar rat liver
T3 sequence (P15823 1-515): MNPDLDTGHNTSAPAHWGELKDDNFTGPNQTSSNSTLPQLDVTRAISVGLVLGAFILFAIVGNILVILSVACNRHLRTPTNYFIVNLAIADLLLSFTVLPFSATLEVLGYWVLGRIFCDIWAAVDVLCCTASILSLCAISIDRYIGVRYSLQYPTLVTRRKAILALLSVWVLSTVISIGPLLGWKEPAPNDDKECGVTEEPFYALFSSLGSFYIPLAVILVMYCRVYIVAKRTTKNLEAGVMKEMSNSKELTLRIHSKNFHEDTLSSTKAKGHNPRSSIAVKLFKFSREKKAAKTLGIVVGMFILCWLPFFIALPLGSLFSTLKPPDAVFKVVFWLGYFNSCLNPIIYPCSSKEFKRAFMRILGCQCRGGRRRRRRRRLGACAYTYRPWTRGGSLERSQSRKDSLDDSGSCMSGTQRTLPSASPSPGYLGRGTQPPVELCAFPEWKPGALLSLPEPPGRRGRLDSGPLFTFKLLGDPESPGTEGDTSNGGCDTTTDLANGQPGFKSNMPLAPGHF
In short: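 Filter binding with Wistar rat liver α1B preparation: test compound plus 0.25 nM [3H]prazosin, 1 h at 25° C in modified Tris-HCl buffer pH 7.4.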

Structure (SMILES) | Percentage inhibition of ligand binding, Adrenergic α2A (0.1 μM) [1] | Percentage inhibition of ligand binding, Adrenergic α2B (0.03 μM) [2] | inhibition at 0.1 µM ([3]; read-out: Percentage inhibition of ligand binding, Adrenergic α1B (0.1 μM), compound at 0.1 μM) | Percentage inhibition of ligand binding, Adrenergic α1B (0.1 μM) [3] | inhibition at 0.03 µM [2]
Cc1ccc2c(c1)c1c(n2CC(C)(O)c2cccnc2)C(O)CN(C)C1 (single isomer, unassigned) [II-151a] | 1% | 27% | 11% | – | –
Cc1ccc2c(c1)c1c(n2CC(C)(O)c2cccnc2)C(O)CN(C)C1 (single isomer, unassigned) [II-151b] | 11% | 78% | – | 13% | –
Cc1ccc2c(c1)c1c(n2CC(C)(O)c2cccnc2)CCN(C)C1C (single isomer, unassigned) [II-152b] | 6% | 61% | – | 2% | –
Cc1ccc2c(c1)c1c(n2CC(C)(O)c2cccnc2)CCN(C)C1C (single isomer, unassigned) [II-152c] | 1% | 14% | – | 6% | –
Cc1ccc2c(c1)c1c(n2CC(CC(O)C(C)(C)C)c2ccncc2)CCN(C)C1 (single isomer, unassigned) [II-227a, 6-(2,8-dimethyl-1,2,3,4-tetrahydro-pyrido[4,3-b]indol-5-yl)-2,2-dimethyl-5-pyridin-4-yl-hexan-3-ol] | 15% | 86% | – | 25% | –
Cc1ccc2c(c1)c1c(n2CC(CC(O)C(C)(C)C)c2ccncc2)CCN(C)C1 (single isomer, unassigned) [II-227b, 6-(2,8-dimethyl-1,2,3,4-tetrahydro-pyrido[4,3-b]indol-5-yl)-2,2-dimethyl-5-pyridin-4-yl-hexan-3-ol] | 6% | 18% | – | 8% | –
Cc1ccc2c(c1)c1c(n2CC(CC(O)C(C)(C)C)c2ccncc2)CCN(C)C1 (single isomer, unassigned) [II-227c, 6-(2,8-dimethyl-1,2,3,4-tetrahydro-pyrido[4,3-b]indol-5-yl)-2,2-dimethyl-5-pyridin-4-yl-hexan-3-ol] | 24% | 94% | – | 20% | –
Cc1ccc2c(c1)c1c(n2CC(CC(O)C(C)(C)C)c2ccncc2)CCN(C)C1 (single isomer, unassigned) [II-227d, 6-(2,8-dimethyl-1,2,3,4-tetrahydro-pyrido[4,3-b]indol-5-yl)-2,2-dimethyl-5-pyridin-4-yl-hexan-3-ol] | 6% | 26% | – | 12% | –
Cc1cnc2c(c1)c1c(n2CCc2ccncc2)CCN2CCCC12 (single isomer, unassigned) [II-244a, 9-methyl-6-(2-pyridin-4-yl-ethyl)-2,3,4,5,6,10c-hexahydro-1H-3a,6,7-triaza-cyclopenta[c]fluorene] | 22% | 102% | – | 95% | –
Cc1cnc2c(c1)c1c(n2CCc2ccncc2)CCN2CCCC12 (single isomer, unassigned) [II-244b, 9-methyl-6-(2-pyridin-4-yl-ethyl)-2,3,4,5,6,10c-hexahydro-1H-3a,6,7-triaza-cyclopenta[c]fluorene] | 2% | 16% | – | 12% | –
Cc1cnc2c(c1)c1c(n2CCc2ccc(C)nc2)CCN2CCCCC12 (single isomer, unassigned) [IV-8a] | 7% | – | – | 49% | 4%
Cc1cnc2c(c1)c1c(n2CCc2ccc(C)nc2)CCN2CCCCC12 (single isomer, unassigned) [IV-8b] | 22% | 3% | – | 5% | –

Continued, in another order:

Percentage inhibition of ligand binding, Adrenergic α2A (0.1 μM) [1] | Percentage inhibition of ligand binding, Adrenergic α2B (0.03 μM) [2] | inhibition at 0.1 µM ([3]; read-out: Percentage inhibition of ligand binding, Adrenergic α1B (0.1 μM), compound at 0.1 μM) | Percentage inhibition of ligand binding, Adrenergic α1B (0.1 μM) [3] | Structure (SMILES) | inhibition at 0.03 µM [2]
18% | – | – | 7% | Cc1cnc2c(c1)c1c(n2CCc2cnc(C)nc2)CCN2CCCC12 (single isomer, unassigned) [IV-93a] | 52%
−1% | 44% | – | 65% | Cc1cnc2c(c1)c1c(n2CCc2cnc(C)nc2)CCN2CCCC12 (single isomer, unassigned) [IV-93b] | –
6% | 72% | – | 89% | Cc1cnc2c(c1)c1c(n2CC(O)c2ccncc2)CCN2CCCC12 (single isomer, unassigned) [IV-209a, 2-(9-Methyl-1,2,3,4,5,10c-hexahydro-3a,6,7-triaza-cyclopenta[c]fluoren-6-yl)-1-pyridin-4-yl-ethanol] | –
10% | 13% | – | 11% | Cc1cnc2c(c1)c1c(n2CC(O)c2ccncc2)CCN2CCCC12 (single isomer, unassigned) [IV-209b, 2-(9-Methyl-1,2,3,4,5,10c-hexahydro-3a,6,7-triaza-cyclopenta[c]fluoren-6-yl)-1-pyridin-4-yl-ethanol] | –
59% | 102% | – | 98% | Cc1cnc2c(c1)c1c(n2CC(O)c2ccncc2)CCN2CCCC12 (single isomer, unassigned) [IV-209c, 2-(9-Methyl-1,2,3,4,5,10c-hexahydro-3a,6,7-triaza-cyclopenta[c]fluoren-6-yl)-1-pyridin-4-yl-ethanol] | –
8% | 79% | – | 54% | Cc1cnc2c(c1)c1c(n2CC(O)c2ccncc2)CCN2CCCC12 (single isomer, unassigned) [IV-209d, 2-(9-Methyl-1,2,3,4,5,10c-hexahydro-3a,6,7-triaza-cyclopenta[c]fluoren-6-yl)-1-pyridin-4-yl-ethanol] | –
